# Results published in patent publication US5332733A, “Heterocyclically substituted piperazinoakylbenzoxazine and piperazinoalkylbenzothiazine compounds, processes for preparing them, and medicaments containing them” (Kali-Chemie Pharma GmbH, priority 1990, dated 1994).
# Assays:
# [1] = target: T1, cyclooxygenase (Mus musculus, UniProt P22437); experiment: In vitro cyclooxygenase inhibition, release of 6-keto-PGF1α from zymosan-stimulated peritoneal macrophages; format: cell-based; settings: zymosan-stimulated mouse peritoneal macrophage cells, 10^-5 mole/l
# T1 construct: A cell suspension containing peritoneal cells from male mice 8-10 weeks old was obtained in a known manner; endogenous in cells; host or cells: mouse peritoneal macrophages (primary, adherent)
# T1 sequence (P22437 27-602): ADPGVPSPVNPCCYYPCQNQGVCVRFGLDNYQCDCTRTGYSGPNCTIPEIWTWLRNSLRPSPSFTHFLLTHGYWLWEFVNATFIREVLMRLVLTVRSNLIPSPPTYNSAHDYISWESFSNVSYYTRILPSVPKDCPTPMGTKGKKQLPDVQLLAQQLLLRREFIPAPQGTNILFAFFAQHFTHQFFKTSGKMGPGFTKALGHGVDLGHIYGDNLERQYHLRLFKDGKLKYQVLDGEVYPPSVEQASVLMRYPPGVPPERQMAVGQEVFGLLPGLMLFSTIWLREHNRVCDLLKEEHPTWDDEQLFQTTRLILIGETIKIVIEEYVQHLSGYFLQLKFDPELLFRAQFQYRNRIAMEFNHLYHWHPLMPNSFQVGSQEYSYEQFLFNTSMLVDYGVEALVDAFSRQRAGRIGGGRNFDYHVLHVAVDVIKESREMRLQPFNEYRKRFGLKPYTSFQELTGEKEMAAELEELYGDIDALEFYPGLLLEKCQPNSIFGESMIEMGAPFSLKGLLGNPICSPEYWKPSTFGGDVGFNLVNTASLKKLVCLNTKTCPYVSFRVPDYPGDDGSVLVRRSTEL
# Excerpt: 5. In Vitro Determination of Cyclooxygenase Inhibition And 5-lipoxygenase Inhibition.
# After a cell is activated, arachidonic acid contained in cell membranes is metabolized in two ways. Leucotrienes, inter alia leucotriene C4, are formed due to the action of the enzyme 5-lipoxygenase (=5-LO), and prostanoids are formed due to the action of the enzyme cyclooxygenase (=CO). In in vitro systems these metabolites are secreted from the cell.
# To evaluate the cyclooxygenase-inhibiting and 5-lipoxygenase-inhibiting properties of the test substances, their inhibitory activity on the biosynthesis of the arachidonic acid derivatives leucotriene C4 (=LTC4) and 6-keto-prostaglandin F1α (=6-keto-PGF1α) was determined in vitro on mouse peritoneal macrophage cells. For this purpose the LTC4 and 6-keto-PGF1α contents of a mouse peritoneal macrophage cell culture medium were determined by zymosan stimulation as described by Scott et al. (J. Exp. Med. 152 (1980), 324-335) and by Fradin et al., (Prostaglandins, 33 (1987), 579-589).
# A cell suspension containing peritoneal cells from male mice 8-10 weeks old was obtained in a known manner. A solution marketed under the designation RPMI 1640 (Manufactured by Gibco) was used as the cell culture medium, to which heparin (10 international units/ml) and antibiotics were added according to the procedure of Bonney et al. (Biochem. J. 176 (1978) 422-433). The cell suspension was adjusted to a cell concentration of 10^6 cells per ml and distributed uniformly on titer dishes containing 24 1-ml titer cells (wells). These were kept for two hours in a humidified incubator filled with air enriched with 7% CO2. Cells not adhering to the titer well walls were then removed by washing. The remaining macrophage cells adhering to the walls were incubated for about 12 hours in a suspension medium to which 0.1% of bovine serum albumin (BSA=Bovine Serum Albumin) was added. The suspension medium was then replaced by a Hanks salt solution (=Hanks Balanced Salt Solution=HBSS) with 10 mmoles of HEPES (=hydroxyethylpiperazinoethanesulfonic acid) to which a 0.1% strength solution of the test substances in aqueous, 1% strength dimethylformamide or only the solvent had been added. After 15 minutes the arachidonic acid metabolism was stimulated by adding […] of zymosan (=glycoprotein mixture isolated from cell walls of beer yeast, Saccharomyces cerevisiae, Manufactured by Sigma Chemical Co., Munich) per titre cell. After 2 hours samples of the respective supernatant liquid in each cell were examined for their 6-keto-PGF1α and LTC4 contents by an enzyme immunoassay (=EIA). This EIA is carried out following the method of Pradelles et al. (Analytical Chem. 57 (1985), 1170-1173). The determination of LTC4 and the determination of 6-keto-PGF1α were each carried out on suitable dilutions of the samples (1:50 to 1:250 for the LTC4 determination and 1:250 to 1:1,250 for the 6-keto-PGF1α determination) in comparison with a comparative scale. To determine the inhibiting effect of a 10^-5 molar concentration of the compounds, the amounts of reference eicosanoid were determined, and the inhibiting effect was calculated therefrom in % inhibition compared to the measurements of the zymosan controls.
# [2] = system: mice; settings: mouse, in vivo, 1440 min
# Experimental: 2. Determination of Minimum Toxic Dose
# Maximum doses of 300 mg/kg of the test substance were administered orally to male mice weighing 20-25 g. The animals were observed carefully for 3 hours for toxicity symptoms. In addition, all symptoms and deaths were recorded over a period of 24 hours after administration. Associated symptoms were also observed and recorded. If death or severe toxic symptoms were observed, additional mice were administered increasingly lower doses. The lowest dose which produced death or severe toxic symptoms is given in the following Table B as the minimum toxic dose.
SMILES,% inhibition upon release of 6-keto-PGF1α [1] [%],Minimum toxic dose [2] [mg/kg]
Cc1ccnc(N2CCN(CCCC3Oc4ccccc4NC3=O)CC2)c1 (stereo not drawn) [Example 9],32,300
Cc1ccnc(N2CCN(CCCC3Sc4ccccc4NC3=O)CC2)c1 (stereo not drawn) [Example 8],–,100
"Cc1ccnc(N2CCN(CCCCC3Sc4ccccc4NC3=O)CC2)c1 (stereo not drawn) [Example 1, 2-{4-[4-(4-methylpyridin-2-yl)-piperazin-1-yl]butyl}-2H-1,4-benzothiazine-3(4H)-one]",27,300
Cc1ccnc(N2CCN(CCCCC3Oc4ccccc4NC3=O)CC2)c1 (stereo not drawn) [Example 7],17,–
O=C1Nc2ccccc2SC1CCCN1CCN(c2ccc(Cl)cn2)CC1 (stereo not drawn) [Example 15],46,–
Cc1ccnc(N2CCN(CCCC3Sc4ccccc4NC3=S)CC2)c1 (stereo not drawn) [Example 11],0,> 300
